Test system: angiogenesis (vascular density) in air pouch granuloma
Assay: Murine air pouch granuloma model of inflammatory angiogenesis
Assay type: in vivo, mice
Details: positive control
Text: C. Measurement of Angiogenesis in vivo—Murine Air Pouch Granuloma Model
The murine airpouch granuloma model of chronic inflammation (Kimura et al., 1985, J. Pharmacobio-Dyn., 8:393–400; Colville-Nash et al., 1995, J. Pharm. and Exp. Ther., 274:1463–1472) whose disclosure is incorporated herein by reference in its entirety, is characterized by inflammatory cell influx, fibrous tissue proliferation and intense angiogenesis. […] In addition, angiogenesis can be accurately quantitated by a vascular casting method.
Day −1, mice are anesthetized using Aerrane (isoflurane) gas (5%) or other approved methods, after which 3 mls of air is injected into the dorsal subcutaneous tissue using a 27 g needle. Mice are allowed to recover. […]
When the granuloma is removed it is weighed and then dried for 3 days at 45° C. and reweighed. […] The carmine content is then determined against a carmine red standard curve (0.5 to 2 mg/ml) generated in extracted tissue from non carmine treated animals and read at 490 nm. Sample and standard values are determined typically using DeltaSoft Elisa analysis software (Biometallics Inc., Princeton, N.J.). […]
The effect of compounds on vascular density is typically measured 6 days after induction of the granuloma. This time point has been determined to be at or near the peak of angiogenesis. […] Medroxyprogesterone has no effect on granuloma size as measured by dry weight.

Question: Which results are given for medroxyprogesterone?
Answer: maximum reduction (vascular density / vascular index) (measured 6 days after induction): 50%; effect on granuloma size as measured by dry weight: no effect

Source: patent US7005434B2, “Compounds and uses thereof” (SB Corporation, priority 2001, dated 2006)
